Reference: ChEMBL document CHEMBL1201862, “PubChem BioAssay data set” (2004)
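48-hour exposure; five concentrations; linearly interpolated endpoints. GI50 is the concentration that inhibits growth by half.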 Activity calls are given as the source filed them. Rule as the data show it: active = GI50 up to about 1.1 µM and inactive = higher.

How the values were obtained:
Test in all cases: NCI-60 cell line screen, 48 h
CAKI-1 = system: CAKI-1
SF-295 = system: SF-295
LOX IMVI = system: LOX IMVI
Hs-578T = system: Hs-578T
EKVX = system: EKVX
UACC-62 = system: UACC-62
MDA-MB-435 = system: MDA-MB-435
SK-MEL-28 = system: SK-MEL-28
OVCAR-3 = system: OVCAR-3
NCI-H23 = system: NCI-H23
PC-3 = system: PC-3
CCRF-CEM = system: CCRF-CEM
OVCAR-8 = system: OVCAR-8
A498 = system: A498
IGROV-1 = system: IGROV-1
MCF7 = system: MCF7
SF-539 = system: SF-539
RPMI-8226 = system: RPMI-8226
HL-60 = system: HL-60

| SMILES | GI50 (CAKI-1) | GI50 (SF-295) | GI50 (LOX IMVI) | GI50 (Hs-578T) | GI50 (EKVX) | GI50 (UACC-62) | GI50 (MDA-MB-435) | GI50 (SK-MEL-28) | GI50 (OVCAR-3) | GI50 (NCI-H23) | GI50 (PC-3) | GI50 (CCRF-CEM) | GI50 (OVCAR-8) | GI50 (A498) | GI50 (IGROV-1) | GI50 (MCF7) | GI50 (SF-539) | GI50 (RPMI-8226) | GI50 (HL-60) |
| --- | --- | --- | --- | --- | --- | --- | --- | --- | --- | --- | --- | --- | --- | --- | --- | --- | --- | --- | --- |
| Cc1ccc(/C=C2\CN(C)CC3C2=NN(c2ccccc2)C3c2ccc(C)cc2)cc1 (configuration not stated) | > 100 µM (inactive) | > 100 µM (inactive) | > 100 µM (inactive) | > 100 µM (inactive) | 76.7 µM (inactive) | > 100 µM (inactive) | > 100 µM (inactive) | > 100 µM (inactive) | > 100 µM (inactive) | > 100 µM (inactive) | 38.9 µM (inactive) | 29 µM (inactive) | > 100 µM (inactive) | 35.3 µM (inactive) | > 100 µM (inactive) | > 100 µM (inactive) |  |  |  |
| Cn1c2ccccc2c(=S)c2ccccc21 | > 100 µM (inactive) | > 100 µM (inactive) | > 100 µM (inactive) | > 100 µM (inactive) | > 100 µM (inactive) | > 100 µM (inactive) | > 100 µM (inactive) | > 100 µM (inactive) | > 100 µM (inactive) | > 100 µM (inactive) | > 100 µM (inactive) | > 100 µM (inactive) | > 100 µM (inactive) | > 100 µM (inactive) | > 100 µM (inactive) | > 100 µM (inactive) | > 100 µM (inactive) | > 100 µM (inactive) |  |
| COC(=O)C1=C([C@H]2COC(C)(C)O2)[C@H]2C[C@@H]1[C@@H]1OC(C)(C)O[C@@H]12 |  | > 100 µM (inactive) | > 100 µM (inactive) | > 100 µM (inactive) | > 100 µM (inactive) | > 100 µM (inactive) | > 100 µM (inactive) | > 100 µM (inactive) | > 100 µM (inactive) | > 100 µM (inactive) | > 100 µM (inactive) | > 100 µM (inactive) | > 100 µM (inactive) | > 100 µM (inactive) | > 100 µM (inactive) | > 100 µM (inactive) | > 100 µM (inactive) | > 100 µM (inactive) | > 100 µM (inactive) |
| O=C(O)CN1CCN2CCOCCOCCN(CC1)CCN(CC(=O)O)CC2 | > 100 µM (inactive) | > 100 µM (inactive) | > 100 µM (inactive) | > 100 µM (inactive) | > 100 µM (inactive) | > 100 µM (inactive) | > 100 µM (inactive) | > 100 µM (inactive) | > 100 µM (inactive) |  | > 100 µM (inactive) | > 100 µM (inactive) | > 100 µM (inactive) | > 100 µM (inactive) | > 100 µM (inactive) | > 100 µM (inactive) | > 100 µM (inactive) | > 100 µM (inactive) |  |
| CCCCOCOc1ccccc1P1(=O)COc2ccccc2OC1 | > 100 µM (inactive) | 60.5 µM (inactive) | > 100 µM (inactive) | 54 µM (inactive) | > 100 µM (inactive) | 66.2 µM (inactive) | > 100 µM (inactive) | > 100 µM (inactive) | 68.7 µM (inactive) | > 100 µM (inactive) | 55.3 µM (inactive) | > 100 µM (inactive) |  |  | > 100 µM (inactive) | 75 µM (inactive) | > 100 µM (inactive) | 87.9 µM (inactive) | 34.7 µM (inactive) |
| CCc1c(O)nc(Nc2nc3ccccc3[nH]2)[nH]c1=O |  | > 100 µM (inactive) | > 100 µM (inactive) | > 100 µM (inactive) |  | > 100 µM (inactive) | > 100 µM (inactive) | > 100 µM (inactive) | > 100 µM (inactive) | > 100 µM (inactive) | > 100 µM (inactive) | > 100 µM (inactive) | > 100 µM (inactive) | > 100 µM (inactive) | > 100 µM (inactive) | > 100 µM (inactive) | > 100 µM (inactive) |  | > 100 µM (inactive) |
| Nc1nc(NNc2ccccc2F)cc(=O)[nH]1 |  | > 100 µM (inactive) | 42 µM (inactive) | > 100 µM (inactive) | > 100 µM (inactive) |  | > 100 µM (inactive) | > 100 µM (inactive) | > 100 µM (inactive) |  | > 100 µM (inactive) | 78.5 µM (inactive) | > 100 µM (inactive) | > 100 µM (inactive) | > 100 µM (inactive) | > 100 µM (inactive) | > 100 µM (inactive) | 54.2 µM (inactive) | 56.8 µM (inactive) |
| CN(C)/C=N/S(=O)(=O)c1nn2c(C=O)c(-c3ccc(Cl)cc3)nc2s1 | 0.995 µM (active) | 14.4 µM (inactive) | 1.25 µM (inactive) | 3.43 µM (inactive) | 3.28 µM (inactive) | 3.91 µM (inactive) | 2.16 µM (inactive) | 1.62 µM (inactive) | 1.49 µM (inactive) | 2.34 µM (inactive) | 2.46 µM (inactive) | 0.228 µM (active) | 1.31 µM (inactive) | 16.2 µM (inactive) |  | 0.897 µM (active) | 2.13 µM (inactive) | 0.785 µM (active) |  |
| Cc1nc2c(=O)[nH]c(=O)nc-2n(CCO)c1C | > 100 µM (inactive) | > 100 µM (inactive) | > 100 µM (inactive) | > 100 µM (inactive) | > 100 µM (inactive) | > 100 µM (inactive) | > 100 µM (inactive) | > 100 µM (inactive) | > 100 µM (inactive) | > 100 µM (inactive) | > 100 µM (inactive) | > 100 µM (inactive) | > 100 µM (inactive) | > 100 µM (inactive) | > 100 µM (inactive) | > 100 µM (inactive) | > 100 µM (inactive) | > 100 µM (inactive) |  |
| C=C1c2nc3ccccc3n2C=C(c2ccc(Cl)cc2)N1c1ccc(OCCN2CCOCC2)cc1 |  |  | 11 µM (inactive) | 19.5 µM (inactive) |  | 19.9 µM (inactive) | 12.6 µM (inactive) | 28.9 µM (inactive) | 37.2 µM (inactive) | 28.2 µM (inactive) | 10.5 µM (inactive) |  |  | > 100 µM (inactive) | 14.5 µM (inactive) | 10.7 µM (inactive) | 55.3 µM (inactive) | 2.91 µM (inactive) | 7.91 µM (inactive) |
| CN(C)c1cccc(-c2cc(=S)c3cc4c(cc3[nH]2)OCO4)c1 | 11.1 µM (inactive) | 4.6 µM (inactive) | 7.73 µM (inactive) | 4.28 µM (inactive) | 7.62 µM (inactive) | 6.27 µM (inactive) | 1.76 µM (inactive) | > 100 µM (inactive) | 8.67 µM (inactive) | 5.62 µM (inactive) | 3.61 µM (inactive) | 4.26 µM (inactive) | 6.43 µM (inactive) | > 100 µM (inactive) | 6.38 µM (inactive) | 4.94 µM (inactive) | 4.27 µM (inactive) | > 21.1 µM (inactive) |  |
| CSCCC(NCc1c(O)ccc2c(-c3ccccc3)cc(=O)oc12)C(=O)O (configuration not stated) | > 100 µM (inactive) | > 100 µM (inactive) | > 100 µM (inactive) | > 100 µM (inactive) | > 100 µM (inactive) | > 100 µM (inactive) | > 100 µM (inactive) | > 100 µM (inactive) | > 100 µM (inactive) | > 100 µM (inactive) | > 100 µM (inactive) | > 100 µM (inactive) | > 100 µM (inactive) |  | > 100 µM (inactive) | > 100 µM (inactive) | > 100 µM (inactive) | > 100 µM (inactive) | > 100 µM (inactive) |
| C#C[C@]1(O)[C@@H](CO)O[C@@H](n2ccc(N)nc2=O)[C@@H]1O | < 0.01 µM (active) | < 0.0334 µM (active) | < 0.01 µM (active) | 0.108 µM (active) | 0.173 µM (active) | 0.0352 µM (active) | < 0.01 µM (active) | 0.0728 µM (active) | 0.132 µM (active) | 0.0902 µM (active) | 0.0352 µM (active) | < 0.0109 µM (active) | < 0.0121 µM (active) |  | 0.028 µM (active) | < 0.01 µM (active) | 0.111 µM (active) | < 0.01 µM (active) | < 0.0147 µM (active) |
| COCOc1cc(OC)ccc1C/C=N/O | > 100 µM (inactive) | > 100 µM (inactive) | > 100 µM (inactive) | > 100 µM (inactive) | > 100 µM (inactive) | > 100 µM (inactive) | > 100 µM (inactive) | > 100 µM (inactive) | > 100 µM (inactive) | > 100 µM (inactive) | > 100 µM (inactive) | > 100 µM (inactive) | > 100 µM (inactive) |  | > 100 µM (inactive) | > 100 µM (inactive) | > 100 µM (inactive) |  | > 100 µM (inactive) |
| C=CCN1C[C@H](C)N([C@H](c2ccc(C(=O)N(CC)CCO)cc2)c2cccc(OC)c2)C[C@H]1C | > 100 µM (inactive) | > 100 µM (inactive) |  | > 100 µM (inactive) | > 100 µM (inactive) | > 100 µM (inactive) | > 100 µM (inactive) | > 100 µM (inactive) | 12.3 µM (inactive) | > 100 µM (inactive) | 38.6 µM (inactive) |  | > 100 µM (inactive) | 76.6 µM (inactive) | > 100 µM (inactive) | 92.9 µM (inactive) | > 100 µM (inactive) | 40 µM (inactive) | > 100 µM (inactive) |
| O=C1C(Cl)=C(Oc2ccc([N+](=O)[O-])cc2)C(=O)c2c(O)ccc(O)c21 |  | > 100 µM (inactive) |  | > 100 µM (inactive) | > 100 µM (inactive) | > 63.7 µM (inactive) | > 47.5 µM (inactive) | > 50.2 µM (inactive) | 33.6 µM (inactive) | > 57.9 µM (inactive) | > 100 µM (inactive) | 2.12 µM (inactive) | > 100 µM (inactive) | > 100 µM (inactive) | > 100 µM (inactive) | 46.1 µM (inactive) | > 100 µM (inactive) | 21 µM (inactive) | 4.65 µM (inactive) |
